Source: patent publication US9309276B2, “Synthetic lipid A derivative” (University of Georgia Research Foundation, Inc., priority 2007, dated 2016)

System: RAW 264.7 γNO(−) cells
Assay: Cytokine induction and ELISAs in mouse macrophages (RAW 264.7 γNO(−) cells)
Assay type: cell-based
Details: for secretion of cytokines (TNF-α, IL-6, IP-10, IFN-β and IL-1β): Example III, data not shown; for Cytokine top value of dose-response curve, pro Il-1β: cell lysates; for Cytokine top value of dose-response curve, pro Il-1β / TNF-α and IFN-β production, dose response (in words) / Cytokine top value of dose-response curve, IFN-β / Cytokine top value of dose-response curve, IL-6 / Cytokine top value of dose-response curve, IP-10 / Cytokine top value of dose-response curve, RANTES / Cytokine top value of dose-response curve, TNF-α: 5.5 h; for Cytokine top value of dose-response curve, pro Il-1β / Cytokine top value of dose-response curve, IFN-β / Cytokine top value of dose-response curve, IL-6 / Cytokine top value of dose-response curve, IP-10 / Cytokine top value of dose-response curve, RANTES / Cytokine top value of dose-response curve, TNF-α: best-fit value ± std. error; for TNF-α and IFN-β production, dose response (in words) / Cytokine top value of dose-response curve, IFN-β / Cytokine top value of dose-response curve, IL-6 / Cytokine top value of dose-response curve, IP-10 / Cytokine top value of dose-response curve, RANTES / Cytokine top value of dose-response curve, TNF-α / Cytokine top value of dose-response curve, IL-1β: supernatant; for TNF-α and IFN-β production, dose response (in words): wide range of concentrations; for Cytokine top value of dose-response curve, IL-1β: 24 h, best-fit value ± std. error (# plateau not reached for LPS)
Protocol: Mouse macrophages (RAW 264.7 γNO(−) cells) were exposed over a wide range of concentrations to compounds 1-5 and E. coli 055:B5 LPS. After 5.5 hours, the supernatants were harvested and examined for mouse TNF-α and IFN-β using a commercial and in-house developed capture ELISA assay, respectively. Potencies (EC50, concentration producing 50% activity) and efficacies (maximal level of production) were determined by fitting the dose-response curves to a logistic equation using PRISM software. […] It has also been shown that removal of the KDO moieties by mild acidic treatment reduces cellular responses (Demchenko et al., J. Am. Chem. Soc. 2003, 125, 6103-6112).
Having established the EC50 values of TNF-α and IFN-β secretion by compounds 1-5 and E. coli 055:B5 LPS, attention was focused on IL-6, IP-10, RANTES, and IL-1β responses. Thus, the previously harvested supernatants were analyzed for these cytokines using capture ELISA assays (FIG. 4, Table 1). For IL-6, IP-10, and RANTES, a short incubation time of 5.5 hrs was sufficient for detection. To achieve significant IL-1β secretion, the incubation had to be extended to 24 hrs. […] IL-1β is expressed as a pro-protein (pro-IL-1β), which is cleaved by caspase-1 into its active form (IL-1β), which is then secreted. Indeed, analyzing IL-1β of the cell lysates by Western blotting confirmed that it was present as a pro-protein (data not shown). TNF-α is also produced as a pro-protein, which is proteolitically cleaved by tumor necrosis factor-α converting enzyme (TACE) (Skotnicki and Levin, Annu. Rep. Med. Chem. 2003, 38, 153-162; Duffy et al., Thromb. Haemost. 2003, 89, 622-631). […] Furthermore, for each of the synthetic compounds and LPS, EC50 values of secreted TNF-α and intracellular pro-IL-1β were very similar. However, EC50 values for secreted mature IL-1β were larger by as much as 100-fold.
RAW 264.7 γNO(−) cells were plated on the day of the exposure assay as 2×10^5 cells/well in 96-well tissue culture plates (Nunc). Cells were incubated with different stimuli for 5.5 and 24 hours in replicates of five. Culture supernatants were then collected, pooled, and stored frozen (−80° C.) until assayed for cytokine production. After removal of the supernatant, cells were lysed by adding PBS containing Tween 20 (0.01%) and BSA (1%) in the same volume as that of the supernatant and sonicating for 5 min. The cell lysates were pooled and stored frozen (−80° C.) until assayed for cytokine production.
All cytokine ELISAs were performed in 96-well MaxiSorp plates (Nunc). Cytokine DuoSet ELISA Development Kits (R&D Systems) were used for the cytokine quantification of mouse TNF-α, IL-6, IP-10, RANTES, and IL-1β according to the manufacturer's instructions. The absorbance was measured at 450 nm with wavelength correction set to 540 nm using a microplate reader (BMG Labtech). Concentrations of IFN-β in culture supernatants were determined as follows. ELISA MaxiSorp plates were coated with rabbit polyclonal antibody against mouse IFN-β (PBL Biomedical Laboratories). IFN-β in standards and samples was allowed to bind to the immobilized antibody. Rat anti-mouse IFN-β antibody (USBiological) was then added, producing an antibody-antigen-antibody “sandwich”. Next, horseradish peroxidase (HRP) conjugated goat anti-rat IgG (H+L) antibody (Pierce) and a chromogenic substrate for HRP 3,3′,5,5′-tetramethylbenzidine (TMB; Pierce) were added. After the reaction was stopped, the absorbance was measured at 450 nm with wavelength correction set to 540 nm. All cytokine values are presented as the means±SD of triplicate measurements, with each experiment being repeated three times.
Concentration-response data were analyzed using nonlinear least-squares curve fitting in Prism (GraphPad Software, Inc.). […] The Hillslope was set at 1 to be able to compare the EC50 values of the different inducers. […]

Row | SMILES | secretion of cytokines (TNF-α, IL-6, IP-10, IFN-β and IL-1β) | Cytokine top value of dose-response curve, pro Il-1β | TNF-α and IFN-β production, dose response (in words) | Cytokine top value of dose-response curve, IFN-β | Cytokine top value of dose-response curve, IL-6 | Cytokine top value of dose-response curve, IP-10 | Cytokine top value of dose-response curve, RANTES | Cytokine top value of dose-response curve, TNF-α | Cytokine top value of dose-response curve, IL-1β
1 | CCCCCCCCCCCCCCCC(=O)O[C@H](CCCCCCCCCCCC(C)C)CC(=O)N[C@H]1[C@H](OC[C@H]2O[C@H](OP(=O)(O)O)[C@H](NC(=O)C[C@H](O)CCCCCCCCCCCC(C)C)[C@@H](OC(=O)C[C@H](O)CCCCCCCCCCCCC)[C@@H]2O)O[C@H](CO)[C@@H](O)[C@@H]1O [Compound 103, 6-O-{2-Deoxy-2-[(R)-3-hexadecanoyloxy-15-methyl-hexadecanoylamino]-β-D-glucopyranosyl}-3-O—[(R)-3-hydroxy-hexadecanoyl]-2-deoxy-2-[(R)-3-hydroxy-15-methyl-hexadecanoylamino]-α-D-glucopyranose 1-phosphate] | did not lead to secretion of cytokines | – | – | – | – | – | – | – | –
2 | CCCCCCCCCCCCCCCC(=O)O[C@H](CCCCCCCCCCCC(C)C)CC(=O)N[C@H]1[C@H](OC[C@H]2O[C@H](OP(=O)(O)O)[C@H](NC(=O)C[C@H](O)CCCCCCCCCCCC(C)C)[C@@H](O)[C@@H]2O)O[C@H](CO)[C@@H](O)[C@@H]1ONC(=O)C[C@H](O)CCCCCCCCCC(C)C [Compound 104, 6-O-{2-Deoxy-2-[(R)-3-hexadecanoyloxy-15-methyl-hexadecanoylamino]-3-O—[(R)-3-hydroxy-13-methyl-tetradecanoylamino]-β-D-glucopyranosyl}-2-deoxy-2-[(R)-3-hydroxy-15-methyl-hexadecanoylamino]-α-D-glucopyranose 1-phosphate] | did not lead to secretion of cytokines | – | – | – | – | – | – | – | –
3 | CCCCCCCCCCCCCC(=O)OC(CCCCCCCCCCC)CC(=O)OC1C(NC(=O)CC(CCCCCCCCCCC)OC(=O)CCCCCCCCCCC)C(OCC2OC(OP(=O)(O)O)C(NC(=O)CC(O)CCCCCCCCCCC)C(OC(=O)CC(O)CCCCCCCCCCC)C2O)OC(CO)C1OP(=O)(O)O [Lipid A 1, 6-O-{2-Deoxy-2-[(R)-3-dodecanoyloxy-tetradecanoylamino]-3-O—[(R)-3-tetradecanoyloxy-tetradecanoyl]-β-D-glucopyranosyl}-2-deoxy-3-O—[(R)-3-hydroxy-tetradecanoyl]-2-[(R)-3-hydroxy-tetradecanoylamino]-α-D-glucopyranose 1,4′-bisphosphate] | – | 565 ± 25 pg/mL | clear dose response curves | 724 ± 25 pg/mL | 249 ± 29 pg/mL | 6778 ± 214 pg/mL | 5531 ± 214 pg/mL | 3924 ± 179 pg/mL | 92 ± 2 pg/mL
4 | CCCCCCCCCCCC(=O)OC(CCCCCCCCCCC)CC(=O)NC1C(OCC2OC(OP(=O)(O)O)C(NC(=O)CC(O)CCCCCCCCCCC)C(OC(=O)CC(O)CCCCCCCCC)C2O)OC(CO)C(OP(=O)(O)O)C1OC(=O)CC(CCCCCCCCC)OC(=O)CCCCCCCCCCC [Lipid A 2, 6-O-{2-Deoxy-3-O—[(R)-3-dodecanoyloxy-dodecanoyl]-2-[(R)-3-dodecanoyloxy-tetradecanoylamino]-β-D-glucopyranosyl}-2-deoxy-3-O—[(R)-3-hydroxy-dodecanoyl]-2-[(R)-3-hydroxy-tetredecanoylamino]-α-D-glucopyranose 1,4′-bisphosphate] | – | 587 ± 87 pg/mL | clear dose response curves | 654 ± 37 pg/mL | 299 ± 42 pg/mL | 7207 ± 277 pg/mL | 6851 ± 216 pg/mL | 4223 ± 329 pg/mL | 82 ± 2 pg/mL
5 | CCCCCCCCCCCCCCCC(=O)OC(CCCCCCCCCCC)CC(=O)NC1C(OP(=O)(O)O)OC(COC2OC(CO)C(OP(=O)(O)O)C(OC(=O)CC(CCCCCCCCC)OC(=O)CCCCCCCCCCC)C2NC(=O)CC(CCCCCCCCCCC)OC(=O)CCCCCCCCCCC)C(O)C1OC(=O)CC(O)CCCCCCCCC [Lipid A 4, 6-O-{2-Deoxy-3-O—[(R)-3-dodecanoyloxy-dodecanoyl]-2-[(R)-3-dodecanoyloxy-tetradecanoylamino]-β-D-glucopyranosyl}-2-deoxy-2-[(R)-3-hexadecanoyloxy-tetredecanoylamino]-3-O—[(R)-3-hydroxy-dodecanoyl]-α-D-glucopyranose 1,4′-bisphosphate] | – | 610 ± 35 pg/mL | clear dose response curves | 710 ± 44 pg/mL | 233 ± 12 pg/mL | 7320 ± 415 pg/mL | 5360 ± 263 pg/mL | 4178 ± 250 pg/mL | 86 ± 4 pg/mL
